Reference: patent US20030013650A1, “VR-OAC, an osomotically activated channel protein, nucleic acids encoding it, and uses thereof” (The Rockefeller University, priority 2000, published 2003)
Entries after “also recorded” stand apart in the source; their conditions may differ.

Columns and labels:
[1] = system: C. elegans mutant osm-9; assay: Transgenic rescue of C. elegans mutant osm-9 (osmotic avoidance, nose touch, odorant avoidance); format: in vivo, Caenorhabditis elegans; settings: for rescue of lack of osmotic avoidance and lack of response to nose touch: expressed in ASH neurons (sra6 promotor) of osm-9 worms
Method: The coding region of the rat VR-OAC cDNA was cloned into the C. elegans expression vector pPD49.26 that contained the sra6 promotor. This promotor directs expression in the ASH and ASI neurons. Purified DNA was injected into the gonad of hermaphroditic worms, strain N2, together with the marker gene elt-2/green fluorescent protein (GFP) which directs expression of GFP in C. elegans intestinal cells. Transgenic offspring could be identified by GFP fluorescence, and VR-OAC transgenic lines of worms were generated. Likewise, several transgenic lines of worms were established and maintained on an osm-9 (ky-10 allele) genetic background. In these worms, an osmotic avoidance in response to hyperosmotic stimuli was clearly present, as was sensitivity to nose touch (FIGS. 15A and 15B). The avoidance reactions were assayed on single animals as previously described^34. Odorant avoidance in response to octanone was not present. […] In order to confirm that the observed rescue is mediated by the ASH neuron, both ASH neurons were laser ablated in osm-9/VR-OAC transgenic (tg) worms. This procedure completely abolished rescue (FIGS. 15A and 15B). In order to visualize subcellular localization of the VR-OACtg in the ASH neuron, GFP was tagged to the C-terminus of VR-OAC. The tagged protein could be localized to the cilia of the ASH neuron in the worm nose where fluorescence was stronger than in any other part of this neuron. Rescue was not impaired in VR-OAC/GFPtg osm-9 worms (FIGS. 15A and 15B).
In order to understand better the specificity of the observed rescue, VR-OACtg worms were crossed to C. elegans mutants which genetically define the alternate mechanosensory pathway. VR-OACtg worms of the following mutant lines were generated: ocr-2, odr-3, glr-1, osm-10 and double-mutants of the former with osm-9. These lines were tested for osmotic avoidance, nose touch and odorant avoidance. […] In another control experiment addressing the specificity of the observed rescue, we expressed rat VR1 under the control of the sra6 promotor in ASH neurons of wild type and osm-9 worms. No rescue was observed. However, in osm-9 as well as in wild type worms tg for VR1 there was a strong avoidance response to vanilloids which was absent in non-tg worms.
Next, we wanted to use the transgenic rescue of osm-9 by VR-OAC as an in-vivo model in order to better understand structure-function relationships of VR-OAC. Gross deletions were constructed lacking either the N-terminal intracellular domain (aminoacid [AA] 1-410 of VR-OAC), the C-terminal intracellular domain (AA 741-781 of VR-OAC) or both. Three lines of worms were established for each of the gross deletions. The line with the most pronounced rescue as an indication of highest expression level of tg was investigated more in depth. […] The N-terminus and the C-terminus thus appear dispensable for the response to osmotic and mechanical stimuli, and, most likely, for proper intracellular transport in the ASH neuron. In addition to these gross deletions, we wanted to learn more about the structure-function relationship of strategically positioned single amino acid exchanges in the pore-loop domain of VR-OAC. As for the gross deletions, three lines of worms were generated for each point mutation. […]

[2] = target: T1, rat VR1 (Rattus norvegicus, UniProt O35433); assay: Ca2+ imaging (fluo-4) of control CHO cells expressing rat VR1; format: cell-based; settings: control CHO line expressing rat VR1; 200 nM resiniferatoxin (FIG. 10A legend)
T1 construct: The complete cDNAs of rat VR-OAC, chicken VR-OAC, and rat VR1 were subcloned into the eukaryotic expression vector pcDNA3.1; expressed in transfected cells
From the text: (§1) To confirm that VR-OAC constitutes an ion channel and to determine the stimulus that gates it, we expressed the rat and chicken proteins in stably transfected Chinese hamster ovary (CHO) cells. Untransfected CHO cells and a line stably transfected with a VR1-expressing plasmid served as controls. We loaded VR-OAC-expressing cells with the Ca^2+ indicator fluo-4 AM and used conventional and confocal icroscopy to monitor changes in fluorescence, which reflected alterations in the ntracellular Ca^2+ concentration.
The complete cDNAs of rat VR-OAC, chicken VR-OAC, and rat VR1 were subcloned into the eukaryotic expression vector pcDNA3.1 (Invitrogen, Carlsbad, Calif.). CHO-K1 cells (ATCC, Manassas, Va.) were transfected with these vectors and selected with G418 (Life Technology, Gaithersburg, Md.). Stable clones that expressed the mRNAs were identified by Northern blot analysis and, for VR1, by response to ligand. […]
Confocal analysis was performed with an MRC-1024ES system (Bio-Rad, Hercules, Calif.) mounted on an inverted microscope (Zeiss Axiovert 135TV, Carl Zeiss, Jena, Germany). […] Images were also recorded with a cooled digital camera (Micromax, Princeton Instruments Inc., Princeton, N.J.) atop a Zeiss Axioplan microscope. These images were analyzed using IPLab software (Scanalytics Inc., Fairfax, Va.). […]

[3] = system: VR-OAC; assay: Ca2+ imaging (fluo-4) of CHO cells transfected with VR-OAC or variants; format: cell-based, rat and chicken; settings: for response of VR-OAC-transfected cells to ligand (fluo-4 Ca2+ imaging): chicken and rat VR-OAC-transfected cells, resiniferatoxin 0.2 μM and 5 μM, anandamide 5 μM and 25 μM; for fluo-4 fluorescence upon exposure to hypotonic medium: stores depleted with 10 μM thapsigargin and potentiation channels blocked with 20 μM SKF 96365 (combined)
From the text: as §1
The complete cDNAs of rat VR-OAC, chicken VR-OAC, and rat VR1 were subcloned into the eukaryotic expression vector pcDNA3.1 (Invitrogen, Carlsbad, Calif.). CHO-K1 cells (ATCC, Manassas, Va.) were transfected with these vectors and selected with G418 (Life Technology, Gaithersburg, Md.). Stable clones that expressed the mRNAs were identified by Northern blot analysis and, for VR1, by response to ligand.
For Ca2+ imaging, cells were loaded for 30 min at room temperature in […] fluo-4 AM ester (Molecular Probes, Eugene, Oreg.) in isoosmotic Hille's saline solution (130 mM Na^+, 2.5 mM K^+, 2 mM Ca2+, 1 mM Mg2+, 138.5 mM Cl−, 20 mM D-glucose, and 10 mM HEPES at pH 7.3; Babcock et al., 1997) containing 2 mM probenecid. The cells were then washed and incubated for 15 min at 30° C. to promote deacetylation of internalized fluo-4 AM ester.
Confocal analysis was performed with an MRC-1024ES system (Bio-Rad, Hercules, Calif.) mounted on an inverted microscope (Zeiss Axiovert 135TV, Carl Zeiss, Jena, Germany). Confocal image series were collected using Lasersharp software (BioRad) running on a Poweredge 2300 computer (Dell Computer, Round Rock, Tex.). Images were also recorded with a cooled digital camera (Micromax, Princeton Instruments Inc., Princeton, N.J.) atop a Zeiss Axioplan microscope. These images were analyzed using IPLab software (Scanalytics Inc., Fairfax, Va.). Analysis of single-frame or single-cell integrated signal density was performed on Macintosh computers running NIH Image software (version 1.61; O'Neill et al., 1989).
Solutions with different osmotic strengths were created by adding water or mannitol to Hille's saline solution. Unless otherwise noted, the Ca2+ concentration of all solutions was held constant at 2 mM. The resultant osmolalities were verified with a vapor-pressure osmometer (Vapro 5520, Wescor Inc., Logan, Utah). The test solutions included a graded series of hypotonic solutions (with 220 mmol kg-1 the lowest osmolality), a hypertonic solution (330 mmol kg-1), isotonic solutions at 295 mmol kg-1 with graded concentrations of Na+ (with 50 mM the lowest concentration), and hypotonic solutions containing 100 μM, 250 μM, and 500 μM GdCl3. Ligands used for stimulation were resiniferatoxin (Sigma Chemicals, St. Louis, Mo.) at 0.2 μM and 5 μM and anandamide (Cayman Chemical, Ann Arbor, Mich.) at 5 μM and 25 μM. To test whether VR-OAC is directly gated by increases in temperature, we exposed dishes containing fluo-4-loaded cells to temperatures ranging from room temperature to 30° C., 37° C., 40° C., 45° C., 50° C., and 55° C. Images were acquired during the thermal stimulus series at intervals of 60 s for up to 10 min after the start of heating. A series of calibration experiments confirmed that this interval ensured proper thermal equilibration. A similar procedure was used to test the response to hypotonicity at various temperatures.

[4] = system: VR-OAC; assay: Whole-cell and patch recordings from VR-OAC-transfected CHO-K1 cells; format: cell-based, chicken or rat; set-up: effect on VR-OAC-transfected cells (whole-cell current) / effect on whole-cell current: dose or concentration left out as unconfirmed; settings: for VR-OAC currents on stimulation with hypotonic solution: after incubation in 10 μM thapsigargin and 20 μM SKF 96365 (combined)
Method: Electrophysiological characterization of VR-OAC was performed at room temperature on CHO-K1 cell lines stably or transiently transfected with one of four expression vectors, pcDNA3.1 (Invitrogen) with inserts bearing chicken or rat VR-OAC, eGFP-OAC, or eGFP-ΔOAC. These cells were selected because untransfected HEK 293 cells responded to hypotonic stress and Xenopus laevis oocytes are known to respond to membrane stretch (Yang and Sachs, 1989). Cells plated on glass-bottom Petri dishes were observed through a 40× water-immersion objective lens on an inverted microscope (Aviovert 100 M, Carl Zeiss) equipped with Nomarski optics. We recorded whole-cell and patch currents with a voltage-clamp amplifier (EPC-7, List-Electronic, Darmstadt-Eberstadt, Germany). Voltage stimuli were generated and responses recorded with a computer (P6400 GX1, Dell) running LabVIEW 5.0 software (National Instruments, Austin, Tex.). Voltage and current responses were low-pass filtered at 2 kHz with an eight-pole Bessel filter and sampled at 5 kHz.
Tight-seal pipettes were bent to permit an orthogonal approach to a cell's surface and heat-polished to give resistances of 3-5 MΩ. Internal solutions typically contained 117 mM NaCl, 5 mM HEPES, 1 mM EDTA, and mannitol to achieve isotonicity. EDTA was omitted in the pipette solution during experiments in which the bath solution also lacked EDTA. Pipette and cell capacitance were largely compensated; series resistance compensation ranged from 10% to 60%. Ground reference was provided by an Ag—AgCl electrode through a 150 mM KC1 agar bridge.
A fluid-jet stimulus was delivered by applying a pressure pulse of about 3 kPa to the rear of a glass pipette with a tip diameter of 5-10 μm. Filled with saline solution identical to that in the recording chamber, the pipette's tip was oriented perpendicular to the bottom of the chamber and placed roughly 10 μm above the target cell. The onset and termination of the jet were regulated by a solenoid valve (Picospritzer II, General Valve Corporation, Fairfield, N.J.) under computer control. During whole-cell recording, cells were maintained in isotonic or slightly hypertonic solutions. Mechanical stimulation was accomplished by perfusion of hypotonic solutions. […] Isotonic and hypertonic solutions were prepared by supplementing the standard hypotonic solution with mannitol to respectively 295 mmol kg−1 and 340 mmol kg−1.
In studies of the effects of Ca2+ and Gd3+ on whole-cell currents, hypotonic test solutions included respectively 2 mM CaCl2 or […] GdCl3. Because carboxylic-acid Ca2+ chelators are known to compromise the capacity of GdC13 to block mechanosensitive channels (Caldwell et al., 1998), EDTA was excluded from the latter medium and the pipette solution. […]

T1 sequence (O35433 whole entry): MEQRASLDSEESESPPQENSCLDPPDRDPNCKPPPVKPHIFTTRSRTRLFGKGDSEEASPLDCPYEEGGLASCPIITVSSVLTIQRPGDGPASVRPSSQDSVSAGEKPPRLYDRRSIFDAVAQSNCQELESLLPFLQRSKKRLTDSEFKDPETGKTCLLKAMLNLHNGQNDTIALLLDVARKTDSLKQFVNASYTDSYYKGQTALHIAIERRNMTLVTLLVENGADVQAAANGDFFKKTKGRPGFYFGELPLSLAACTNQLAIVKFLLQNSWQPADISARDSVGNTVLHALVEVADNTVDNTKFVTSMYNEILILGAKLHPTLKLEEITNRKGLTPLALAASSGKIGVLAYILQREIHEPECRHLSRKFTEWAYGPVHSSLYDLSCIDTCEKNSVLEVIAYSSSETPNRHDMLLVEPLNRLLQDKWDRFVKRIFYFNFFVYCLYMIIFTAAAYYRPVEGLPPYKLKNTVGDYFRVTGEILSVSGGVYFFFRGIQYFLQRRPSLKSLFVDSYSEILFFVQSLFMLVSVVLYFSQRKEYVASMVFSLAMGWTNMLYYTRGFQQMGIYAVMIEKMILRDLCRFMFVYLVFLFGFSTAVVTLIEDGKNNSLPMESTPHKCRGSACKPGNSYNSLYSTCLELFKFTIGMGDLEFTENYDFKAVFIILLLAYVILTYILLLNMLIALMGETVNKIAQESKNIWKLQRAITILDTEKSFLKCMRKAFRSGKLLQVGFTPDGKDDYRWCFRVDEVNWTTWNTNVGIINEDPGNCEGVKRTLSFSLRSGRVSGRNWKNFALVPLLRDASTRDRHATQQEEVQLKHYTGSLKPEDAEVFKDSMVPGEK

## rat VR1: rat vanilloid receptor 1, expressed as specificity control
[1]
  rescue of lack of osmotic avoidance and lack of response to nose touch: No rescue

## C=C(C)[C@]12C[C@@H](C)[C@@]34O[C@](Cc5ccccc5)(O[C@@H]1[C@@H]3C=C(COC(=O)Cc1ccc(O)c(OC)c1)C[C@]1(O)C(=O)C(C)=C[C@@H]41)O2 [resiniferatoxin]
[2]
  intracellular Ca^2+ concentration / Ca^2+ influx (fluo-4 fluorescence): strong Ca^2+ influx; also recorded: increases the intracellular Ca^2+ concentration
[3]
  response of VR-OAC-transfected cells to ligand (fluo-4 Ca2+ imaging): responded neither

## CCCCC/C=C\C/C=C\C/C=C\C/C=C\CCCC(=O)NCCO [anandamide]
[3]
  response of VR-OAC-transfected cells to ligand (fluo-4 Ca2+ imaging): responded neither

## C/C=C(/C)C(=O)O[C@H]1C(C)=C2[C@H]([C@@H]1OC(=O)CCCCCCC)[C@@](C)(OC(C)=O)C[C@H](OC(=O)CCC)[C@@]1(O)[C@H]2OC(=O)[C@@]1(C)O [thapsigargin]
[3]
  fluo-4 fluorescence upon exposure to hypotonic medium: does not increase
[4]
  VR-OAC currents on stimulation with hypotonic solution: displayed characteristic VR-OAC currents

## rat VR-OAC: rat orthologue of VR-OAC, 871 amino acids
[1]
  rescue of lack of osmotic avoidance and lack of response to nose touch: partial rescue
[1]; osm-9 worms, octanone
  rescue of lack of odorant avoidance: no rescue

## COc1ccc(CCCOC(Cn2ccnc2)c2ccc(OC)cc2)cc1 (stereo not shown) [SKF 96365]
[3]
  fluo-4 fluorescence upon exposure to hypotonic medium: does not increase
[4]
  VR-OAC currents on stimulation with hypotonic solution: displayed characteristic VR-OAC currents

## [Gd+3] [Gd^3+, Gadolinium ion]
[4]; Gd^3+ extracellular, within the first few minutes
  effect on VR-OAC-transfected cells (whole-cell current): resembled that of Ca^2+
[4]; Gd^3+, more protracted exposure
  effect on whole-cell current: irreversibly abolished the whole-cell current

B1: VROAC without both its N-terminus and C-terminus: VR-OAC deletion of both N-terminal (AA 1-410) and C-terminal (AA 741-781) regions (protein, UniProt Q9HBA0 411-740, looked up, fragment)
chain: YGPVYSSLYDLSSLDTCGEEASVLEILVYNSKIENRHEMLAVEPINELLRDKWRKFGAVSFYINVVSYLCAMVIFTLTAYYQPLEGTPPYPYRTTVDYLRLAGEVITLFTGVLFFFTNIKDLFMKKCPGVNSLFIDGSFQLLYFIYSVLVIVSAALYLAGIEAYLAVMVFALVLGWMNALYFTRGLKLTGTYSIMIQKILFKDLFRFLLVYLLFMIGYASALVSLLNPCANMKVCNEDQTNCTVPTYPSCRDSETFSTFLLDLFKLTIGMGDLEMLSSTKYPVVFIILLVTYIILTFVLLLNMLIALMGETVGQVSKESKHIWKLQWATT
[1]
  rescue of lack of osmotic avoidance and lack of response to nose touch: still rescues
